Results: patent US20240335429A1, “MOLECULAR GLUE AND SALL4 DEGRADER” (National University of Singapore, priority 2021, published 2024)

Legend:
SALL4B = target: T1, SALL4B (Homo sapiens, UniProt Q9UJQ4); experiment: Immunoblot of endogenous SALL4B in SNU-398 HCC cells; type: cell-based
T1 construct: endogenous in cells; host or cells: SNU-398 HCC cells
T1 sequence (Q9UJQ4 1-616 isoform Q9UJQ4-2): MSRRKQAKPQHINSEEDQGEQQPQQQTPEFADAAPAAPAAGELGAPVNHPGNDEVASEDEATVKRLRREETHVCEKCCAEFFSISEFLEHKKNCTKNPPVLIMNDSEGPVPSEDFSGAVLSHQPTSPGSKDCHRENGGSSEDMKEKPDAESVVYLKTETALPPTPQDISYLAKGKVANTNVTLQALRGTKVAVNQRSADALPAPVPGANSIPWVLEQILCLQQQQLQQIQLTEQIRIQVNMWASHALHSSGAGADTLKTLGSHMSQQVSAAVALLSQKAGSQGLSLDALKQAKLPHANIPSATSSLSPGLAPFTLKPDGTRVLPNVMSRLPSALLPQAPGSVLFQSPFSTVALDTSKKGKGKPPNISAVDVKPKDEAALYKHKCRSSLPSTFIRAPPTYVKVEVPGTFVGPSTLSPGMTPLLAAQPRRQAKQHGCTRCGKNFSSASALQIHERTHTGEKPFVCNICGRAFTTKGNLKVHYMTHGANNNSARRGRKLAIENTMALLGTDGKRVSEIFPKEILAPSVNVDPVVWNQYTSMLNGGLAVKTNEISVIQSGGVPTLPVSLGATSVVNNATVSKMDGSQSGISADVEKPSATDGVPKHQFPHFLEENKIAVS
Description: (§1) RIPA buffer containing freshly added protease inhibitors (2 mM PMSF) and protease inhibitor cocktail was used for cell lysis. The lysed cells were incubated for 10 min on ice and subsequently centrifuged at 4° C. for 10 min at 14,000 rpm. The protein concentrations of cell lysates were assessed using Bradford Assay as per manufacturer's instructions. The samples were denatured using 4× Sample buffer at 95° C. for 5 min. The samples were size resolved using polyacrylamide gel (8%) and Mini-PROTEAN Tetra Cell module. The size-resolved proteins were transferred onto PVDF via electroblotting using Mini Trans-Blot® module. The membrane was blocked using 5% BSA in TBST. The membrane was incubated with appropriate primary antibody (overnight) and secondary antibody (1 h). Immobilon Crescendo Western HRP substrate was used for signal development and images were acquired using darkroom development techniques.
A head-to-head comparison between the newly discovered SALL4 degrader QE-18-WG07 and IMiDs (Pomalidomide and Thalidomide) was performed. To assess the differential isoform degradation and biological consequences induced by QE-18-WG07 and IMiDs in cancer cells, the inventors employed the newly developed SALL4 isoform-specific cellular luciferase reporter system in Example 1 (FIG. 1A), and human HCC cell lines (SNU-398 and SNU-182), and NSCLC cell line H661 that have a high SALL4 level endogenously. The inventors treated H1299 cells overexpressing SALL4B_Nluc and the HCC (SNU-398, SNU-182) and NSCLC cells (H661) with increasing concentrations of QE-18-WG07 and IMiDs, and assayed the SALL4B_Nluc, as well as the endogenous SALL4A and B levels by immunoblots described in Example 4.
26S proteasome complex and neddylation was inhibited by cotreating MG132 at 1 and 3 μM and MLN4924 at 10 and 15 μM for 18 h, 20 h, 24 h or 48 h with desired concentrations of QE-18-WG07 in SNU-398, H661 and SNU-182 cells. After 18 h or 24 h of treatment, cells were then lysed and subjected to further protein extraction and immunoblotting by following the protocol in Example 4. For caspase glo assay, 20 h of cotreatment was performed by following the protocol in Example 5. For viability assay, 48 h of cotreatment was carried out by following the protocol in Example 5.
For lentiviral transduction, SNU-398 cells were spun with lentiviral particles containing the aforementioned vectors in RPMI (plus 10% FBS, 8 μg/mL polybrene) at 800 g for 60 minutes at room temperature. 96 h post-infection, cells were seeded in 6-well or 384-well plates and incubated overnight at 37° C., 5% CO2. Cells were then treated with DMSO or QE-18-WG07 at desired concentrations (0.5% final DMSO) for 18 h and 24 h. Immunoblot analysis was subsequently performed with the indicated antibodies by following the protocol in Example 4. […]

IKZF3 = target: T2, IKZF3 (Homo sapiens, UniProt Q9UKT9); experiment: Immunoblot of IKZF3 in SNU-398 HCC cells; type: cell-based; conditions: SNU-398 cells
T2 construct: with immunoblots in SNU-398 HCC cells; endogenous in cells; host or cells: SNU-398 HCC cells
Description: as §1

CRBN = target: T3, CRBN (Homo sapiens, UniProt Q96SW2); experiment: Cellular Thermal Shift Assay (CETSA) in SNU-398 cell lysates; type: binding; conditions: from 51 to 56° C., read-out: overall thermal shift of CRBN
T3 construct: endogenous in cells; host or cells: SNU-398 cell lysate
Description: Cells were washed with cold PBS and harvested into 50 mL tubes and centrifuged at 1,200×g for 5 min. For cell lysis, cells were resuspended in 1× NP-40 lysis buffer containing 10 mM Tris-HCl (pH 7.4), 150 mM NaCl, 2.7 mM KCl and 0.4% NP-40, and rotated end-over-end at 4° C. for 30 min. The cell lysate was centrifuged at 20,000 rpm for 10 min at 4° C. and the supernatant was collected. The cell lysate was divided into two aliquots, with one aliquot being treated with QE-18-WG07, and the other aliquot with DMSO control. After specific incubation time at room temperature, the respective lysates were divided into smaller aliquots of 40 μL and heated individually at different temperatures (51-56° C.) for 3 min in a thermal cycler, followed by a 3-min cool-down at room temperature. The heated lysates were centrifuged at 15,000 rpm for 10 min at 4° C. to separate the soluble fractions from the precipitates. The supernatants were transferred to new microtubes and analyzed by SDS-PAGE, followed by western blot analysis described in Example 4. The integrated band intensities were quantified by ImageJ. The thermal curves were analyzed by nonlinear regression using Graph Pad Prism.

T3 sequence (Q96SW2 whole entry): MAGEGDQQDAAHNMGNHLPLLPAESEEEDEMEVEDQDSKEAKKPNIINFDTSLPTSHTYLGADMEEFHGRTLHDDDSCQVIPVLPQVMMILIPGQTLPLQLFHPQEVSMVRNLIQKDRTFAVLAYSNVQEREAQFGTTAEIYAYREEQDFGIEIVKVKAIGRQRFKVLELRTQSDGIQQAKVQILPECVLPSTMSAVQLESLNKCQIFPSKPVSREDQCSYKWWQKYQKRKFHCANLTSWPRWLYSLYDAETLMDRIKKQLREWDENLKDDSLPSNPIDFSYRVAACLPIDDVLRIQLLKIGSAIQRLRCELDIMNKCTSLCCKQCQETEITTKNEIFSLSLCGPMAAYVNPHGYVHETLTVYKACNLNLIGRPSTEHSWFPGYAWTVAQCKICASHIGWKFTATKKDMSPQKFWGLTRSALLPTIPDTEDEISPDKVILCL
T2 sequence (Q9UKT9 whole entry): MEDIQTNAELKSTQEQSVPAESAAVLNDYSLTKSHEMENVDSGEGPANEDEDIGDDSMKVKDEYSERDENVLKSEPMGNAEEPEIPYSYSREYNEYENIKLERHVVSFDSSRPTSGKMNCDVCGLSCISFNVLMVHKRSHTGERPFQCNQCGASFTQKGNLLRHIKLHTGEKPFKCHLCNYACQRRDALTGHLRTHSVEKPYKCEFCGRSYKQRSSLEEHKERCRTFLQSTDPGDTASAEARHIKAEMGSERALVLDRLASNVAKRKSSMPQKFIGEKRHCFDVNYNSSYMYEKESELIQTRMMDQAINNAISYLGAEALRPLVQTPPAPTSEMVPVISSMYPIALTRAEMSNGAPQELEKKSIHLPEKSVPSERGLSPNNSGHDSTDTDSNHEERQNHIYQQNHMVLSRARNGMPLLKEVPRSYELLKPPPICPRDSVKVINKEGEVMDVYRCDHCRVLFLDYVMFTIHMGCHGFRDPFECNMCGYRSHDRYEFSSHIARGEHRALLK

COc1ccccc1NC(=O)Nc1ccc([N+](=O)[O-])cc1O [QE-18-WG07]
degradation of endogenous SALL4B after CRBN knockdown by shRNA (SALL4B; CRBN-KD SNU-398 cells, 18 h): prevented
SALL4B degradation under MG132 or MLN4924 cotreatment (SALL4B; SNU-398, SNU-182 and H661 cells): chemically rescued
Dmax (SALL4B; SNU-398 HCC cells, 24 h of treatment, immunoblot quantification): 87%
DC50 (SALL4B; SNU-398 cells, 24 h, immunoblot quantification): ~640 nM
degradation of IKZF3 (IKZF3): did not degrade
ΔTm at 50 µM (CRBN): ≤ 5 °C
